Measured values from article PMC10247784, “Physiological activation of human and mouse bitter taste receptors by bile acids” (Communications Biology, 2023).

Molecular target: T1, mouse Tas2r105 (Mus musculus, UniProt Q9JKT4)
T1 construct: expressed in transfected cells; host or cells: HEK293T-Gα16gust44
T1 sequence (Q9JKT4 1-300): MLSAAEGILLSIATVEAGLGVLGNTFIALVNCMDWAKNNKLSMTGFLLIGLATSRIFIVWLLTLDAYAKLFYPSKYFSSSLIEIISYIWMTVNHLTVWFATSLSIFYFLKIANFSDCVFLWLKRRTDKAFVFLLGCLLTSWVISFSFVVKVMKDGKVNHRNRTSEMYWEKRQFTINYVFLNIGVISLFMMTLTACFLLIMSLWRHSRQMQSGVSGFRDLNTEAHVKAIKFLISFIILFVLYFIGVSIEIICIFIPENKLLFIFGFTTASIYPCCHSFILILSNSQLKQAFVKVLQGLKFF
Test: Calcium imaging assay (FLIPR), HEK293T-Gα16gust44 cells transfected with mouse Tas2r105
Assay type: cell-based
Experimental: This set of bile acids was chosen because of their commercial availability in high purities, their diversity within the class of bile acids and their previous detection and quantitation in human blood. Stock solutions were prepared in DMSO.
As basal growth medium for the HEK293T-Gα16gust44 cell line[17],[59] served Dulbecco’s modified eagle medium (DMEM) (Thermo Fisher Scientific, Darmstadt, Germany) supplemented with 10 % fetal bovine serum (Sigma-Aldrich, Steinheim, Germany), 2 mM L-glutamine (Sigma-Aldrich, Steinheim, Germany), 100 units/ml penicillin (Sigma Aldrich, Steinheim, Germany) and 100 µg/ml streptomycin (Sigma Aldrich, Steinheim, Germany). Growth conditions were 37 °C, 5 % CO2 and saturated air-humidity[60].
HEK293T-Gα16gust44 cells were seeded on poly-D-lysine (10 µg/ml) coated 96-well plates to reach a confluence of 40-60 % the next day. For transient transfection 150 ng of plasmid DNA containing the receptor of interest and 0.3 µl lipofectamine 2000 (Thermo Fisher Scientific, Darmstadt, Germany) per well were used and transfection took place according to the manual of lipofectamine 2000. […] The empty vector DNA (mock) was transfected as negative control[14],[41].
Cells were loaded using the calcium-sensitive fluorescent dye Fluo-4-AM (Abcam, Cambridge, Great Britain) in the presence of 2.5 mM probenecid (Sigma-Aldrich, Steinheim, Germany) the day after transfection[13],[41]. 1 h after loading, cells were washed with C1 buffer using a BioTek Cell Washer, incubated in the dark for half an hour and washed again. For automated agonist application and measurement of fluorescence changes, a FLIPR^TETRA device (Molecular Devices, San José, United States) was used. Viability of cells was tested by application of 100 nM Somatostatin 14 (Bachem, Bubendorf, Switzerland)[42].
Measured data were negative control corrected by subtracting the signal of the mock-transfected cells and exported to Microsoft Excel using the FLIPR software ScreenWorks 4.2. In Microsoft Excel software, standardization of maximum fluorescence intensities to the basal fluorescence and normalization to the buffer-only control was done to calculate the relative fluorescence changes (ΔF/F).
Initial screening experiments performed in duplicate wells were confirmed by at least one replication and representative traces were selected for display. All dose-response relationships were determined by three independent experiments (biological replicates) performed in duplicates (technical replicates). Threshold concentrations, defined as lowest substance concentrations leading to statistically significant elevated fluorescence changes in receptor-transfected cells compared with empty vector-transfected cells, were determined using SigmaPlot with Student’s t-test to evaluate statistical significance (p < 0.01).

## C[C@H](CCC(=O)O)[C@H]1CC[C@H]2[C@@H]3[C@H](O)C[C@@H]4C[C@H](O)CC[C@]4(C)[C@H]3C[C@H](O)[C@]12C [Cholic Acid, cholic acid]
Time 0 s
  RLU: 0 RLU
Time 2 s
  RLU: 1.777 RLU
Time 4 s
  RLU: 7.834 RLU
Time 6 s
  RLU: 2.675 RLU
Time 8 s
  RLU: 9.829 RLU
Time 12 s
  RLU: -3.285 RLU
Time 14 s
  RLU: -7.0734 RLU
Time 16 s
  RLU: 15 RLU
Time 18 s
  RLU: 44.4226 RLU
Time 18.781 s
  RLU: 21.6772 RLU
Time 20.781 s
  RLU: 9.429 RLU
Time 22.781 s
  RLU: 39.5966 RLU
Time 24.781 s
  RLU: 10.8272 RLU
Time 26.781 s
  RLU: 50.2337 RLU
Time 28.781 s
  RLU: 59.2009 RLU
Time 30.781 s
  RLU: 49.6279 RLU
Time 32.781 s
  RLU: 86.2126 RLU
Time 34.781 s
  RLU: 65.8416 RLU
Time 36.781 s
  RLU: 100.025 RLU
Time 38.781 s
  RLU: 89.1237 RLU
Time 40.781 s
  RLU: 115.541 RLU
Time 42.781 s
  RLU: 131.095 RLU
Time 44.781 s
  RLU: 139.548 RLU
Time 46.781 s
  RLU: 164.231 RLU
Time 48.781 s
  RLU: 193.51 RLU
Time 50.781 s
  RLU: 193.303 RLU
Time 52.781 s
  RLU: 217.91 RLU
Time 54.781 s
  RLU: 257.63 RLU
Time 56.781 s
  RLU: 273.677 RLU
Time 58.781 s
  RLU: 284.724 RLU
Time 60.781 s
  RLU: 322.244 RLU
Time 62.781 s
  RLU: 314.427 RLU
Time 64.781 s
  RLU: 342.91 RLU
Time 66.781 s
  RLU: 375.793 RLU
Time 68.781 s
  RLU: 398.01 RLU
Time 70.781 s
  RLU: 424.457 RLU
Time 72.781 s
  RLU: 449.971 RLU
Time 74.781 s
  RLU: 470.44 RLU
Time 76.781 s
  RLU: 487.87 RLU
Time 78.781 s
  RLU: 480.774 RLU
Time 80.781 s
  RLU: 513.812 RLU
Time 82.781 s
  RLU: 513.576 RLU
Time 84.781 s
  RLU: 531.991 RLU
Time 86.781 s
  RLU: 549.947 RLU
Time 88.781 s
  RLU: 553.294 RLU
Time 90.781 s
  RLU: 575.612 RLU
Time 92.781 s
  RLU: 557.955 RLU
Time 94.781 s
  RLU: 575.485 RLU
Time 96.781 s
  RLU: 548.118 RLU
Time 98.781 s
  RLU: 585.897 RLU
Time 100.781 s
  RLU: 576.152 RLU
Time 102.781 s
  RLU: 586.681 RLU
Time 104.781 s
  RLU: 569.701 RLU
Time 106.781 s
  RLU: 551.409 RLU
Time 108.781 s
  RLU: 564.279 RLU
Time 110.781 s
  RLU: 542.028 RLU
Time 112.781 s
  RLU: 544.652 RLU
Time 114.781 s
  RLU: 548.979 RLU
Time 116.781 s
  RLU: 550.607 RLU
Time 118.781 s
  RLU: 555.391 RLU
Time 120.781 s
  RLU: 575.811 RLU
Time 122.781 s
  RLU: 538.707 RLU
Time 124.781 s
  RLU: 581.753 RLU
Time 126.781 s
  RLU: 520.313 RLU
Time 128.781 s
  RLU: 519.484 RLU
Time 130.781 s
  RLU: 535.938 RLU
Time 132.781 s
  RLU: 507.19 RLU
Time 134.781 s
  RLU: 533.269 RLU
Time 136.781 s
  RLU: 500.116 RLU
Time 137.578 s
  RLU: 523.788 RLU
Time 143.578 s
  RLU: 484.404 RLU
Time 149.578 s
  RLU: 476.256 RLU
Time 155.578 s
  RLU: 501.067 RLU
Time 161.578 s
  RLU: 504.009 RLU
Time 167.578 s
  RLU: 489.395 RLU
Time 173.578 s
  RLU: 450.925 RLU
Time 179.578 s
  RLU: 464.442 RLU
Time 185.578 s
  RLU: 417.045 RLU
Time 191.578 s
  RLU: 421.394 RLU
Time 197.578 s
  RLU: 391.24 RLU
Time 203.578 s
  RLU: 344.694 RLU
Time 209.578 s
  RLU: 358.293 RLU
Time 215.578 s
  RLU: 343.137 RLU
Time 221.578 s
  RLU: 329.589 RLU
Time 227.578 s
  RLU: 339.83 RLU
Time 233.578 s
  RLU: 325.692 RLU
Time 239.578 s
  RLU: 315.743 RLU
Time 245.578 s
  RLU: 313.71 RLU
Time 293.578 s
  RLU: 197.324 RLU
Time 299.578 s
  RLU: 152.865 RLU
Time 305.578 s
  RLU: 156.643 RLU
Time 311.578 s
  RLU: 134.046 RLU
Time 317.578 s
  RLU: 124.601 RLU
Time 323.578 s
  RLU: 131.88 RLU
Time 329.578 s
  RLU: 133.734 RLU
Time 335.578 s
  RLU: 174.038 RLU
Time 341.578 s
  RLU: 165.309 RLU
Time 347.578 s
  RLU: 173.556 RLU
Time 353.578 s
  RLU: 191.675 RLU
Time 359.578 s
  RLU: 226.638 RLU
P < 0.01 vs empty vector
  Activation threshold concentration Tas2r105: 300 µM
